SMILES strings stand for the structures. Activity calls are given as the source filed them. The calls are words filed in the database; no cut-off is given here.

The values that follow come from ChEMBL document CHEMBL1153807, “An inhibitor of CCL2-induced chemotaxis from the fungus Leptoxyphium sp” (J Nat Prod, 2009).

What all share (type): cell-based
Data set [1] can be described thus: Cytotoxicity against human monocytes at 100 uM after 24 hrs. Conditions: monocyte.
The target of data set [2] is C-C chemokine receptor type 2 (Homo sapiens) (UniProt P41597). Nature of the data set: Inhibition of CCR2 in human monocytes assessed as CCL2-induced cell migration at 10 uM after 1.5 hrs by micro-Boyden chamber.
The target is the same in data set [3]. Nature of the data set: Inhibition of CCR2 in human monocytes assessed as cell migration at 100 uM after 30 mins.
Data set [4] has the same target. The data set is described as follows: Inhibition of CCR2 in human monocytes assessed as CCL2-induced cell migration at 100 uM after 1.5 hrs by micro-Boyden chamber.

C-C chemokine receptor type 2 (Homo sapiens), sequence (P41597 whole entry, looked up): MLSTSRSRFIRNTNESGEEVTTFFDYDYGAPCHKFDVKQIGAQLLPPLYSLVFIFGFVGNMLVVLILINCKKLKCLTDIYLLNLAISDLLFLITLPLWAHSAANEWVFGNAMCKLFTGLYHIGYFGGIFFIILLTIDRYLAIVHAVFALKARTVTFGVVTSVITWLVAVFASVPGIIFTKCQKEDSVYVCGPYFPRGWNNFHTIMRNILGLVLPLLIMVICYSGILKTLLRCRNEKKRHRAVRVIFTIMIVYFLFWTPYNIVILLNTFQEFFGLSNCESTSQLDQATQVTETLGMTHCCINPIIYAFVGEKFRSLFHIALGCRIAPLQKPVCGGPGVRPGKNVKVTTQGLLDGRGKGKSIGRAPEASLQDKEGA

With `O=C1N[C@H](Cc2cc(Cl)c(O)c(Cl)c2)C(=O)N2CCC[C@H]12`, the Activity result in data set [1] was “Non-toxic”. In addition, in data set [2], the inhibition entry is “Active”.
`O=C1N[C@@H](Cc2ccc(O)cc2)C(=O)N2CCC[C@@H]12`: the inhibition result in data set [3] and in data set [4] was “inactive” throughout. The Activity entry in data set [1] is recorded as “Non-toxic”.
For the compound `CON1C(=O)C2NC(=O)[C@@]13Oc1cc(O)c(Cl)cc1[C@@H]3SS2`, the Activity entry in data set [1] is recorded as “Toxic”.
`CC(C)C[C@@H]1C(=O)N[C@@H](Cc2c[nH]c3ccccc23)C(=O)N1C`: in data set [4], the inhibition entry was “inactive”. In addition, the Activity result in data set [1] is recorded as “Non-toxic”.
